Source: ChEMBL document CHEMBL5665443, “Enzyme Inhibitor Single Concentration assay results for EUbOPEN Chemogenomics Library” (2024)

Tests used:
[1] = target: Uracil-DNA glycosylase (Homo sapiens) (UniProt P13051); details: Compound Concentration 10.0 uM, Hit No;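 also: UNG excision on a quenched double-stranded DNA oligo probe, with APE1 added for strand incision and turnover, read as fluorescence at 594 nm as strands separate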
Description: Inhibition of UNG by quantifying inhibition of UNG-mediated cleavage and dissociation of quenched duplex DNA oligonucleotides, measured as fluorescence at 594 nm. To generate a functional strand incision and increase turn-over this assay is coupled to APE1.

[2] = target: Endonuclease 8-like 1 (Homo sapiens) (UniProt Q96FI4); details: Compound Concentration 10.0 uM, Hit No;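 also: fluorescence at 594 nm from quenched duplex DNA oligonucleotides released by NEIL1 cleavage and strand separation, reported as reduction of this enzyme activity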
Description: Inhibition of NEIL1 by quantifying inhibition of NEIL1-mediated cleavage and dissociation of quenched duplex DNA oligonucleotides, measured as fluorescence at 594 nm.

[3] = target: T1, Endonuclease III-like protein 1 (Homo sapiens) (UniProt P78549); details: Compound Concentration 10.0 uM, Hit No;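 also: enzyme assay tracking NTHL1 cutting and release of a quenched double-stranded DNA oligo substrate, read as fluorescence at 594 nm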
T1 sequence (whole entry): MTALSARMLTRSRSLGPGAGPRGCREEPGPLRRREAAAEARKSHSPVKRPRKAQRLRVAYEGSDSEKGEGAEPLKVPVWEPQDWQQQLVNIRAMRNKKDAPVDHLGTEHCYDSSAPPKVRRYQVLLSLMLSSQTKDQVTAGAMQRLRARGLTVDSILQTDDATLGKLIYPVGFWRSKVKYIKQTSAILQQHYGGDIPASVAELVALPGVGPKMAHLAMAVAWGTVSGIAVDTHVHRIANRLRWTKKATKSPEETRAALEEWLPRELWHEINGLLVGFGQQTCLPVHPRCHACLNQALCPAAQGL
Description: Inhibition of NTHL1 by quantifying inhibition of NTHL1-mediated cleavage and dissociation of quenched duplex DNA oligonucleotides, measured as fluorescence at 594 nm.

[4] = target: N-glycosylase/DNA lyase (Homo sapiens) (UniProt O15527); details: Compound Concentration 10.0 uM;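 also: OGG1 cleavage of a quenched duplex DNA oligonucleotide, coupled to APE1 for strand incision, read as fluorescence at 594 nm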
Description: Inhibition of OGG1 by quantifying inhibition of OGG1-mediated cleavage and dissociation of quenched duplex DNA oligonucleotides, measured as fluorescence at 594 nm. To generate a functional strand incision and increase turn-over this assay is coupled to APE1.

[5] = target: G/T mismatch-specific thymine DNA glycosylase (Homo sapiens) (UniProt Q13569); details: Compound Concentration 10.0 uM;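 also: human TDG cleavage of quenched duplex DNA oligonucleotides coupled to APE1, strand release read as fluorescence at 594 nm, inhibition of TDG activity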
Description: Inhibition of TDG by quantifying inhibition of TDG-mediated cleavage and dissociation of quenched duplex DNA oligonucleotides, measured as fluorescence at 594 nm. To generate a functional strand incision and increase turn-over this assay is coupled to APE1.

[6] = target: T2, Adenine DNA glycosylase (Homo sapiens) (UniProt Q9UIF7); details: Compound Concentration 10.0 uM, Hit No;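 also: human MUTYH activity read as 594 nm fluorescence from cleavage and release of a quenched DNA duplex, coupled with APE1 for strand incision, lower signal meaning inhibition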
T2 sequence (whole entry): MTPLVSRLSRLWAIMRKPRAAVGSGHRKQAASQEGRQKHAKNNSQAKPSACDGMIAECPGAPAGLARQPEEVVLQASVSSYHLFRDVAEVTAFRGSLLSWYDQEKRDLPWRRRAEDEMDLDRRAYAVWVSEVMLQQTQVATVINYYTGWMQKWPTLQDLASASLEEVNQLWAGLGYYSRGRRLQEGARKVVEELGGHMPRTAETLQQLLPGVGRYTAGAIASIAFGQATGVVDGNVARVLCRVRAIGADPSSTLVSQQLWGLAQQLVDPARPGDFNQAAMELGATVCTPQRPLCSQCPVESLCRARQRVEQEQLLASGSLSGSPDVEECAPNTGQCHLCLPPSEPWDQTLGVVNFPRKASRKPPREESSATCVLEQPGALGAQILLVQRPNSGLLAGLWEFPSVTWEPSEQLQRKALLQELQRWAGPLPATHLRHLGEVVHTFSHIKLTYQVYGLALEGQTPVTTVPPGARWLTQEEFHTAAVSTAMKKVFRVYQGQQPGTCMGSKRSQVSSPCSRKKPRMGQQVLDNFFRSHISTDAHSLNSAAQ
Description: Inhibition of MUTYH by quantifying inhibition of MUTYH-mediated cleavage and dissociation of quenched duplex DNA oligonucleotides, measured as fluorescence at 594 nm. To generate a functional strand incision and increase turn-over this assay is coupled to APE1.

[7] = target: Methyl-CpG-binding domain protein 4 (Homo sapiens) (UniProt O95243); details: Compound Concentration 10.0 uM;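 also: MBD4 activity read as fluorescence at 594 nm from cleavage and release of a quenched duplex DNA oligonucleotide, with APE1 coupled to incise the strand and raise turnover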
Description: Inhibition of MBD4 by quantifying inhibition of MBD4-mediated cleavage and dissociation of quenched duplex DNA oligonucleotides, measured as fluorescence at 594 nm. To generate a functional strand incision and increase turn-over this assay is coupled to APE1.

[8] = target: DNA-3-methyladenine glycosylase (Homo sapiens) (UniProt P29372); details: Compound Concentration 10.0 uM, Hit No;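 also: enzyme assay where MPG cuts a quenched duplex DNA oligonucleotide probe, paired with APE1 for strand incision and turnover, read as fluorescence at 594 nm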
Description: Inhibition of MPG by quantifying inhibition of MPG-mediated cleavage and dissociation of quenched duplex DNA oligonucleotides, measured as fluorescence at 594 nm. To generate a functional strand incision and increase turn-over this assay is coupled to APE1.

[9] = target: T3, Endonuclease 8-like 2 (Homo sapiens) (UniProt Q969S2); details: Compound Concentration 10.0 uM, Hit No;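 also: fluorescence at 594 nm reports NEIL2 cutting and release of a quenched double-stranded DNA oligo substrate, reduced signal read as inhibition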
T3 sequence (whole entry): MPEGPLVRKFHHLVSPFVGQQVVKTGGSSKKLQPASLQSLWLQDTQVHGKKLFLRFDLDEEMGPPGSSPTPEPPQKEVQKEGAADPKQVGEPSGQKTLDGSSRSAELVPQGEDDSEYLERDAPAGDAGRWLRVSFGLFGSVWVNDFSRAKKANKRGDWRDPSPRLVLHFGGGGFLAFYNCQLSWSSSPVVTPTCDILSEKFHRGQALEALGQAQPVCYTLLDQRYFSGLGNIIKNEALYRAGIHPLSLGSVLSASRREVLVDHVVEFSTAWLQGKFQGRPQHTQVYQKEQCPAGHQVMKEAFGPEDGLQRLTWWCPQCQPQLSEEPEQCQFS
Description: Inhibition of NEIL2 by quantifying inhibition of NEIL2-mediated cleavage and dissociation of quenched duplex DNA oligonucleotides, measured as fluorescence at 594 nm.

[10] = target: T4, Single-strand selective monofunctional uracil DNA glycosylase (Homo sapiens) (UniProt Q53HV7); details: Compound Concentration 10.0 uM, Hit No;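 also: enzymatic SMUG1 assay coupled with APE1, reading fluorescence at 594 nm released when a quenched double-stranded DNA oligonucleotide substrate is cleaved and separated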
T4 sequence (whole entry): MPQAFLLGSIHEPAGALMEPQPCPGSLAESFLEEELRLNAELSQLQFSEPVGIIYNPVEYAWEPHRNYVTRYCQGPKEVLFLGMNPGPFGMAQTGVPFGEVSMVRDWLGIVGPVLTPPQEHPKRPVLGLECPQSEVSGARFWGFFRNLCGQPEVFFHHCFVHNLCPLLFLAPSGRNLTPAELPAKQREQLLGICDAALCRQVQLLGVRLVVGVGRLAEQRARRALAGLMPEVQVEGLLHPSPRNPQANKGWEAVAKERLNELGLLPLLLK
Description: Inhibition of SMUG1 by quantifying inhibition of SMUG1-mediated cleavage and dissociation of quenched duplex DNA oligonucleotides, measured as fluorescence at 594 nm. To generate a functional strand incision and increase turn-over this assay is coupled to APE1.

G/T mismatch-specific thymine DNA glycosylase (Homo sapiens), sequence (Q13569 whole entry): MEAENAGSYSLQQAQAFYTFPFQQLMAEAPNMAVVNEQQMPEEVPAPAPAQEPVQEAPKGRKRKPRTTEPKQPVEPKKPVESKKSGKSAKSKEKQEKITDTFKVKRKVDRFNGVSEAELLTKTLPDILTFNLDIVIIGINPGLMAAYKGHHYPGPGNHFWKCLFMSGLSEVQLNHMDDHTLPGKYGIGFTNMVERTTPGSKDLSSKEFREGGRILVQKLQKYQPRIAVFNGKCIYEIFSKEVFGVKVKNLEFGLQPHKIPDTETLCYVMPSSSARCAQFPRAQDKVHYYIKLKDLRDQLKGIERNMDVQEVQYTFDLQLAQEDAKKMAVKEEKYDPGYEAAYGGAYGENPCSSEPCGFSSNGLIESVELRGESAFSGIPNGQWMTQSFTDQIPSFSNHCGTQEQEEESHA
N-glycosylase/DNA lyase (Homo sapiens), sequence (O15527 whole entry): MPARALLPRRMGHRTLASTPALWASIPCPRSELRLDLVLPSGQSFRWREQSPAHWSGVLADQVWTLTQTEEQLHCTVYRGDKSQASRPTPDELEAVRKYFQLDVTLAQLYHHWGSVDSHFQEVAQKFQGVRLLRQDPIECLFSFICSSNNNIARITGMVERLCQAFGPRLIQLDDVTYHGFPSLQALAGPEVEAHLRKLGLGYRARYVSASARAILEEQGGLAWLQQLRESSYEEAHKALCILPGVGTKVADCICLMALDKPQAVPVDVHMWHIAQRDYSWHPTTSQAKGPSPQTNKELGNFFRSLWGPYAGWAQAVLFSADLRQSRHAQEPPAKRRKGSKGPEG
Uracil-DNA glycosylase (Homo sapiens), sequence (P13051 whole entry): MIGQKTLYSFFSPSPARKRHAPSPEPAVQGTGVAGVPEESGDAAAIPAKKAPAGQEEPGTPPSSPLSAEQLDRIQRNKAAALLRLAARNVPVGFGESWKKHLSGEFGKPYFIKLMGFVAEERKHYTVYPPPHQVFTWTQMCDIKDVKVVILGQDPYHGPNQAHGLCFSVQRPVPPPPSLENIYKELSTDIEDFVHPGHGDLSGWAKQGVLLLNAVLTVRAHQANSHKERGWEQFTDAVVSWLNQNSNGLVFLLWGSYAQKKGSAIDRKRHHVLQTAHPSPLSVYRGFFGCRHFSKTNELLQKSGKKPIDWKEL
DNA-3-methyladenine glycosylase (Homo sapiens), sequence (P29372 whole entry): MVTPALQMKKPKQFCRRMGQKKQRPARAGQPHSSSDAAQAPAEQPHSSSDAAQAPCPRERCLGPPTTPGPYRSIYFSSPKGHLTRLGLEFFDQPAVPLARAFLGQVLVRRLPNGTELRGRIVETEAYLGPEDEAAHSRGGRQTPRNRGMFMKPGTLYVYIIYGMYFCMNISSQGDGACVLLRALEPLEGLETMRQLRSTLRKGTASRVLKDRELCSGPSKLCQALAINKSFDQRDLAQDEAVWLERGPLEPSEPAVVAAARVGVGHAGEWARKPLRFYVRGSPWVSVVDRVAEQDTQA
Methyl-CpG-binding domain protein 4 (Homo sapiens), sequence (O95243 whole entry, the tested form may be a part): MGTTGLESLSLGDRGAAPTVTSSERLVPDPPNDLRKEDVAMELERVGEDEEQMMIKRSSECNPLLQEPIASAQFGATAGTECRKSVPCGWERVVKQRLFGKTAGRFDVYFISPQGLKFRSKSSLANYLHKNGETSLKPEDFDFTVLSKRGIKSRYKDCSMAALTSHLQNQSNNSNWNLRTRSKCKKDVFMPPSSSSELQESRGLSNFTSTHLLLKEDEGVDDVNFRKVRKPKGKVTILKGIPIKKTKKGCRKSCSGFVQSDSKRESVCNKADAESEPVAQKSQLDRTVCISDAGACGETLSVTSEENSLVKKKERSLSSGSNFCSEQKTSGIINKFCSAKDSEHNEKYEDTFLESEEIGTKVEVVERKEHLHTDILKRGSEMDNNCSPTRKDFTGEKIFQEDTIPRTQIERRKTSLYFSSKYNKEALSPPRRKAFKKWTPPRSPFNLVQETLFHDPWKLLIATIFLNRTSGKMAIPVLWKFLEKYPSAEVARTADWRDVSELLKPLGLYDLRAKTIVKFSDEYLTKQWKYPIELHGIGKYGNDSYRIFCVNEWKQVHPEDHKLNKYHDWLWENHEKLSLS
Endonuclease 8-like 1 (Homo sapiens), sequence (Q96FI4 whole entry): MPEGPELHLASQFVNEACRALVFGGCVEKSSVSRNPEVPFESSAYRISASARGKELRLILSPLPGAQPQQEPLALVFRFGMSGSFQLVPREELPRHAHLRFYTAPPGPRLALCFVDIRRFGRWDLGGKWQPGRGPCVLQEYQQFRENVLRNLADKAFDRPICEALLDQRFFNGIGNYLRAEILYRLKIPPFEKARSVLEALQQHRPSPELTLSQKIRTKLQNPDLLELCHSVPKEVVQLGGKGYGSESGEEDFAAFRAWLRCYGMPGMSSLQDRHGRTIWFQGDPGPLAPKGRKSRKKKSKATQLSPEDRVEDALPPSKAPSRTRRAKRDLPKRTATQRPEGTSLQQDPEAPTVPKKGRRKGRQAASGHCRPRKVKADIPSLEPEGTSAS

Row | Structure (SMILES) | inhibition [1] | inhibition [2] | inhibition [3] | inhibition ([4]; Hit No) | inhibition ([5]; Hit No) | inhibition [6] | inhibition ([7]; Hit No) | inhibition [8] | inhibition [9] | inhibition [10] | inhibition ([4]; Hit Yes) | inhibition ([5]; Hit Yes) | inhibition ([7]; Hit Yes)
1 | COc1ccccc1N1CCN(C[C@@H](C(=O)NC(C)(C)C)c2ccccc2)CC1 | -2.81% | 15.4% | 17.1% | -6.28% | 24.3% | -2.23% | 17.7% | 15.3% | -2.13% | 7.78% |  |  | 
2 | N[C@@H](CCP(=O)(O)O)C(=O)O | -0.352% | 7.42% | 12.1% | -5.28% | 17.7% | -5.97% | 13% | -0.846% | -3.15% | -0.24% |  |  | 
3 | O=S(=O)(Nc1nnc2cc(OCC34CC5CC(CC(C5)C3)C4)c(C3CC3)cn12)C1CC1 | 12% | 6.23% | 10.5% |  |  | 84.7% |  | 62.1% | 11.9% | 11.5% | 53% | 73.8% | 80.9%
